{"source": "paper PMC11661291", "about": "“Unique structural features in a deep-sea CYP51 relate to high pressure adaptation” (Research Square, 2024)", "key": {"[1]": {"molecular_target": "T1, C. armatus CYP51 (Coryphaenoides armatus, UniProt Z9AQN8BZD8)", "T1 sequence (Z9AQN8BZD8 6-449 limits assumed)": "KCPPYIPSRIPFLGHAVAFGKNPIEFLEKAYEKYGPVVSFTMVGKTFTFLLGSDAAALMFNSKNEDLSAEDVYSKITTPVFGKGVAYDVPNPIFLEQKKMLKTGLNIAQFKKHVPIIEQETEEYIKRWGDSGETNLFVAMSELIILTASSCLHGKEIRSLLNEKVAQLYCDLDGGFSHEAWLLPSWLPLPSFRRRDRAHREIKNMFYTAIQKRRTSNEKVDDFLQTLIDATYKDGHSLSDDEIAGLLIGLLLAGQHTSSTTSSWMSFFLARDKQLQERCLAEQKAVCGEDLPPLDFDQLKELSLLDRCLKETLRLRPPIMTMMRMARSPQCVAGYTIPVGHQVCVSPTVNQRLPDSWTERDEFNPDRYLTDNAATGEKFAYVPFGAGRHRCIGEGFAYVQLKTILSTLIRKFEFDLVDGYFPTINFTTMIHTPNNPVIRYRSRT", "assay": "Spectral titrations with sterol substrates (type I spectral response)", "settings": "for Low-to-high spin state transition in the heme iron / Change in absorbance, ΔAmax per μM P450: sterol 0.25–3 μM; for Low-to-high spin state transition in the heme iron: 22 °C; for Change in absorbance, ΔAmax per μM P450: optical pathlength 1 cm", "protocol": "Equal amounts of the HPCD solution were added to the reference cuvette to correct for the solvent-induced spectral perturbations, and the difference spectra were taken in the wavelength range of 350–500 nm. The apparent spectral dissociation constants of the enzyme-substrate complex (Kd) were calculated in GraphPad Prism software by fitting the data for the substrate-induced absorbance changes Δ(A390-A423) versus substrate concentration to a one site-total binding equation (binding-saturation)."}, "[2]": {"molecular_target": "T1, C. armatus CYP51", "assay": "Reconstituted catalytic activity, steady-state kinetic analysis of sterol 14α-demethylation", "settings": "0.25 μM P450, 1 μM CPR, 1 min reaction, 37 °C", "protocol": "(§1) The samples were preincubated for 3 min at 37 °C in a shaking water bath, the reaction was initiated by the addition of 100 μM NADPH and stopped by the extraction of sterols with ethyl acetate. The extracted sterols were dried, dissolved in 100 μL of methanol, and the products were analyzed by reversed-phase HPLC equipped with a β-RAM detector (INUS Systems) using a Nova-Pak 3.9 mm × 150 mm (4 μm) octadecylsilane (C18) HPLC column. The products were separated with an isocratic mobile phase composed of acetonitrile and methanol (4:1 (v/v)) at a flow rate of 0.75 mL/min[9]. Michaelis-Menten parameters were calculated using GraphPad Prism. The kcat and Km values for each reaction were determined by fitting the data to a Michaelis–Menten hyperbola, with the reaction rates (nmol product formed/nmol P450/min) being plotted versus total substrate concentration."}, "[3]": {"molecular_target": "T1, C. armatus CYP51", "assay": "Stabilizing effect of TMAO registered by CO-binding spectra", "experimental": "Absorption spectra (270–700 nm) were recorded at 22 °C using a dual-beam Shimadzu UV-2600i spectrophotometer and software UVProbe2.71. The P450 concentration was determined from the Soret band absorbance in the absolute spectrum, the extinction coefficient 117 mM^−1 cm^−1 for the low-spin ferric form or 91 mM^−1 cm^−1 for the reduced (ferrous) carbon monoxide (CO) complex in the difference spectra[51].The spin state of the P450 samples was estimated from the absolute spectra using the ratio (ΔA393–470/ΔA417–470), with values of 0.35 and 2.0 corresponding to 100% low- and 100% high-spin iron, respectively.\nAfter data collection the crystals were dissolved in phosphate buffered saline (PBS, Gibco). UV-visible absolute absorption spectra (270–700 nm) were recorded at room temperature using a single beam spectrophotometer NanoVue,4282 (CE Healthcare) (Figure S4A). CO-binding difference absorption spectra (400–500 nm) were recorded using a dual-beam Shimadzu UV-2600i spectrophotometer as follows. The CO gas was bubbled through the protein solution, which was then divided into two cuvettes serving as a blank and standard, respectively. The baseline was taken, and a few crystals of sodium dithionate were added to the sample cuvette (Figure S4B). The corresponding spectra of the original protein sample that was used for crystallization were taken for comparison."}, "[4]": {"molecular_target": "T1, C. armatus CYP51", "assay": "Inhibition of reconstituted enzymatic activity (decrease in substrate conversion in 1 h reaction)", "settings": "enzyme/inhibitor/substrate 1:50:50, 60 min, 0.5 μM P450", "protocol": "as §1"}, "[5]": {"molecular_target": "human CYP51", "design": "method as in PMID 27313059", "settings": "azole ligand; read-out: apparent dissociation constant (Kd); cited from earlier work"}, "[6]": {"molecular_target": "T1, C. armatus CYP51", "assay": "Spectral titrations with azole-based ligands", "protocol": "Titrations with azole-based compounds were carried out at 0.5 μM P450 concentration in 5-cm optical path length cuvettes. Aliquots of 0.1 mM compounds dissolved in dimethyl sulfoxide (DMSO) were added to the sample cuvette, with each titration step being 0.1 μM. At each step, the corresponding volume of DMSO was added to the reference cuvette. The apparent spectral dissociation constants (Kd) were calculated in GraphPad Prism software as described for human CYP51[21]."}, "[7]": {"tested_on": "human CYP51", "design": "method as in PMID 27313059", "settings": "50-fold molar excess of inhibitor over enzyme, 1-hour reaction; cited from earlier work"}, "[8]": {"tested_on": "C=C(CC[C@@H](C)C1CC[C@@]2(C)C3=C(CC[C@]12C)[C@@]1(C)CC[C@H](O)C(C)(C)C1CC3)C(C)C", "assay": "purified protein, by the assay type", "settings": "other: 0.25 μM P450, 1 μM CPR, 1 min reaction, 37 °C", "protocol": "as §1"}, "[9]": {"tested_on": "C=C(CC[C@@H](C)[C@H]1CC[C@@]2(C)C3=C(CC[C@]12C)[C@@]1(C)CC[C@H](O)[C@@H](C)[C@@H]1CC3)C(C)C", "assay": "purified protein, by the assay type", "settings": "other: 0.25 μM P450, 1 μM CPR, 1 min reaction, 37 °C", "protocol": "as §1"}, "[10]": {"tested_on": "CC(C)=CCC[C@@H](C)[C@H]1CC[C@@]2(C)C3=C(CC[C@]12C)[C@@]1(C)CC[C@H](O)C(C)(C)[C@@H]1CC3", "assay": "purified protein, by the assay type", "settings": "other: 0.25 μM P450, 1 μM CPR, 1 min reaction, 37 °C", "protocol": "as §1"}}}
{"molecule": "C=C(CC[C@@H](C)C1CC[C@@]2(C)C3=C(CC[C@]12C)[C@@]1(C)CC[C@H](O)C(C)(C)C1CC3)C(C)C", "note": "(stereo partly drawn)", "values": [{"measurement": "Kd", "setting": "[1]; read-out: Kd (apparent spectral dissociation constant), sterol substrate, P450 2 μM", "result": 1020, "unit": "nM"}, {"measurement": "Low-to-high spin state transition in the heme iron", "setting": "[1]; P450 2 μM", "result": 27, "unit": "%"}, {"measurement": "Change in absorbance, ΔAmax per μM P450", "setting": "[1]; P450 2 μM", "result": 30}, {"measurement": "kcat", "setting": "[2]", "result": 1.03, "unit": "s⁻¹"}]}
{"molecule": "CC(C)=CCC[C@@H](C)[C@H]1CC[C@@]2(C)C3=C(CC[C@]12C)[C@@]1(C)CC[C@H](O)C(C)(C)[C@@H]1CC3", "note": "[Lanosterol]", "values": [{"measurement": "Kd", "setting": "[1]", "result": 770, "unit": "nM"}, {"measurement": "Low-to-high spin state transition in the heme iron", "setting": "[1]; P450 2 μM", "result": 22, "unit": "%"}, {"measurement": "Change in absorbance, ΔAmax per μM P450", "setting": "[1]; P450 2 μM", "result": 24}, {"measurement": "kcat", "setting": "[2]", "result": 0.797, "unit": "s⁻¹"}]}
{"molecule": "C=C(CC[C@@H](C)[C@H]1CC[C@@]2(C)C3=C(CC[C@]12C)[C@@]1(C)CC[C@H](O)[C@@H](C)[C@@H]1CC3)C(C)C", "note": "[Obtusifoliol]", "values": [{"measurement": "Kd", "setting": "[1]", "result": 560, "unit": "nM"}, {"measurement": "Low-to-high spin state transition in the heme iron", "setting": "[1]; P450 2 μM", "result": 13, "unit": "%"}, {"measurement": "Change in absorbance, ΔAmax per μM P450", "setting": "[1]; P450 2 μM", "result": 14}, {"measurement": "kcat", "setting": "[2]", "result": 0.865, "unit": "s⁻¹"}]}
{"molecule": "C[N+](C)(C)[O-]", "note": "[TMAO, trimethylamine oxide]", "values": [{"measurement": "spectral response in the heme iron", "setting": "[3]", "result": "does not cause any spectral response"}, {"measurement": "P450 recovery after overnight incubation (CO-binding spectra)", "setting": "[3]; 10 μM TMAO, overnight storage at 4 °C in PBS", "result": 90, "unit": "%"}]}
{"molecule": "N#Cc1ccc(COc2ccc(C#Cc3ccc(C(F)(F)[C@](O)(Cn4cnnn4)c4ccc(F)cc4F)nc3)cc2)cc1", "note": "[VT-1598]", "values": [{"measurement": "inhibition of C. armatus CYP51 activity", "setting": "[4]", "result": "did not have any inhibitory effect"}]}
{"molecule": "C[C@@H](c1nc(-c2ccc(C#N)cc2)cs1)[C@](O)(Cn1cncn1)c1cc(F)ccc1F", "note": "[isavuconazole]", "values": [{"measurement": "inhibition of C. armatus CYP51 activity", "setting": "[4]", "result": "did not have any inhibitory effect"}]}
{"molecule": "CCC(C)n1ncn(-c2ccc(N3CCN(c4ccc(OCC5COC(Cn6cncn6)(c6ccc(Cl)cc6Cl)O5)cc4)CC3)cc2)c1=O", "note": "(stereo not drawn) [itraconazole]", "values": [{"measurement": "inhibition of C. armatus CYP51 activity", "setting": "[4]", "result": "did not have any inhibitory effect"}, {"measurement": "Kd", "setting": "[5]", "result": 1290, "unit": "nM"}, {"measurement": "Kd", "setting": "[6]", "result": 620, "unit": "nM"}]}
{"molecule": "CC(=O)N1CCN(c2ccc(OCC3COC(Cn4ccnc4)(c4ccc(Cl)cc4Cl)O3)cc2)CC1", "note": "(stereo not drawn) [ketoconazole]", "values": [{"measurement": "lanosterol converted in presence of inhibitor", "setting": "[7]", "result": 100, "unit": "%"}, {"measurement": "Kd", "setting": "[5]", "result": 70, "unit": "nM"}, {"measurement": "Kd", "setting": "[6]", "result": 10, "unit": "nM"}]}
{"molecule": "O[C@@](Cn1cnnn1)(c1ccc(F)cc1F)C(F)(F)c1ccc(-c2ccc(OCC(F)(F)F)cc2)cn1", "note": "[oteseconazole]", "values": [{"measurement": "inhibition of C. armatus CYP51 activity", "setting": "[4]", "result": "did not have any inhibitory effect"}]}
{"molecule": "CC[C@@H]([C@H](C)O)n1ncn(-c2ccc(N3CCN(c4ccc(OC[C@@H]5CO[C@@](Cn6cncn6)(c6ccc(F)cc6F)C5)cc4)CC3)cc2)c1=O", "note": "[posaconazole]", "values": [{"measurement": "inhibition of C. armatus CYP51 activity", "setting": "[4]", "result": "did not have any inhibitory effect"}]}
{"molecule": "C[C@@H](c1ncncc1F)[C@](O)(Cn1cncn1)c1ccc(F)cc1F", "note": "[voriconazole]", "values": [{"measurement": "inhibition of C. armatus CYP51 activity", "setting": "[4]", "result": "did not have any inhibitory effect"}, {"measurement": "Kd", "setting": "[5]", "result": 2530, "unit": "nM"}, {"measurement": "Kd", "setting": "[6]", "result": 610, "unit": "nM"}]}
{"molecule": "C. armatus CYP51 (Coryphaenoides armatus)", "values": [{"measurement": "Km", "setting": "[8]", "result": 13.0, "unit": "µM"}, {"measurement": "kcat", "setting": "[8]", "result": 1.03, "unit": "s⁻¹"}, {"measurement": "kcat/Km", "setting": "[8]", "result": 80000, "unit": "M⁻¹ s⁻¹"}, {"measurement": "Km", "setting": "[9]", "result": 7.9, "unit": "µM"}, {"measurement": "kcat", "setting": "[9]", "result": 0.865, "unit": "s⁻¹"}, {"measurement": "kcat/Km", "setting": "[9]", "result": 110000, "unit": "M⁻¹ s⁻¹"}, {"measurement": "Km", "setting": "[10]", "result": 8.1, "unit": "µM"}, {"measurement": "kcat", "setting": "[10]", "result": 0.797, "unit": "s⁻¹"}, {"measurement": "kcat/Km", "setting": "[10]", "result": 98300, "unit": "M⁻¹ s⁻¹"}]}
